Drawing on ChEMBL document CHEMBL3098004, “Asymmetric synthesis and receptor activity of chiral simplified resiniferatoxin (sRTX) analogues as transient receptor potential vanilloid 1 (TRPV1) ligands” (Bioorg Med Chem Lett, 2014), this text covers Ki and EC50 for 8 compounds.

One may read the Ki as a measure of affinity in units of concentration, obtained from inhibition or displacement. In general, EC50 refers to the concentration that produces a half-maximal response.

Type in all cases: cell-based
Assay [1] addresses T1, Transient receptor potential cation channel subfamily V member 1 (Homo sapiens, UniProt Q8NER1). Description: Antagonist activity at human TRPV1 expressed in CHO cells assessed as inhibition of RTX-induced 45Ca2+ uptake after 20 mins by liquid scintillation counting analysis.
Assay [2] concerns the target T1, Transient receptor potential cation channel subfamily V member 1. The experiment in a line: Agonist activity at human TRPV1 expressed in CHO cells assessed as 45Ca2+ uptake after 20 mins by liquid scintillation counting analysis.
Assay [3] has the same target. The experiment in a line: Displacement of [3H]RTX from human TRPV1 expressed in CHO cells after 60 mins by liquid scintillation counting analysis. (In general: Displacement assays read how much labelled ligand stays bound in the presence of the test substance.)

T1 sequence (Q8NER1 whole entry): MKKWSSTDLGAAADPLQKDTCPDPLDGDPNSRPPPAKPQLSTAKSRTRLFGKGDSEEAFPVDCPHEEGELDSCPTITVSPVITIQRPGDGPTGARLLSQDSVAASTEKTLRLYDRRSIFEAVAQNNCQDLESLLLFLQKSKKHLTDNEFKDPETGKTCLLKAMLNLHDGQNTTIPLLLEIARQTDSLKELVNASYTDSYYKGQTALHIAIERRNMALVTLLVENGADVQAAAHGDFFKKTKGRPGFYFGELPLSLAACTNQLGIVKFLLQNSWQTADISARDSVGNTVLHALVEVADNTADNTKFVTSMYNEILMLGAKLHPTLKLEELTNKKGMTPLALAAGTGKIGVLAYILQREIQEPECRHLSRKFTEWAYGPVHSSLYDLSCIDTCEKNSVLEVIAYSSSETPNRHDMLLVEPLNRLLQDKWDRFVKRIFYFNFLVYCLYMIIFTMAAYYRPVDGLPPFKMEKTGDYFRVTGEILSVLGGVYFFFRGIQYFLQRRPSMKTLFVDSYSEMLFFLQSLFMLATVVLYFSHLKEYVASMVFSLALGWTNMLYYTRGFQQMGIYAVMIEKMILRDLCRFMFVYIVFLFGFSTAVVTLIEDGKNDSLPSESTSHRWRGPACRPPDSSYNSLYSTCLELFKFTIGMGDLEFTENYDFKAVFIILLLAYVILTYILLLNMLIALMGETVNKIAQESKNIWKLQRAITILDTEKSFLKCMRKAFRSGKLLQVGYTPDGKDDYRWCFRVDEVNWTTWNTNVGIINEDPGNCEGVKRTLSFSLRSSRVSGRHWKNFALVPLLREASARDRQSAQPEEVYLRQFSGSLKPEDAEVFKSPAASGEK

For the compound `COc1cc(CNC(=S)NC[C@H](COC(=O)C(C)(C)C)Cc2ccc(C(C)(C)C)cc2)ccc1O`, the Ki result in assay [1] (cho) was “Not Active”; in assay [3], 0.00306 µM. In assay [2] (read-out: EC50), the EC50 is 0.00099 µM.
With `COc1cc(CNC(=S)NC[C@@H](COC(=O)C(C)(C)C)Cc2ccc(C(C)(C)C)cc2)ccc1O`, the Ki result in assay [1] (cho) is “Not Active”; in assay [3], 0.00658 µM. For the same compound, in assay [2] (read-out: EC50), the EC50 was determined as 0.00955 µM.
Take `CC(C)(C)C(=O)OC[C@@H](CNC(=S)NCc1ccc(NS(C)(=O)=O)c(F)c1)Cc1ccc(C(C)(C)C)cc1`: the figures for the Ki in assay [1] (read-out: Ki) and in assay [3] were 0.094 µM and 0.0172 µM, respectively. For the same compound, in assay [2] (cho), the EC50 entry was “Not Active”.
For `CC(C)(C)C(=O)OC[C@H](CNC(=S)NCc1ccc(NS(C)(=O)=O)c(F)c1)Cc1ccc(C(C)(C)C)cc1`, in that order: 0.161 µM, 0.063 µM and “Not Active”.
Consider `CC(C)(C)C(=O)OCC(CNC(=S)NCc1ccc(NS(C)(=O)=O)c(F)c1)Cc1ccc(C(C)(C)C)cc1` (racemic), for which the Ki came to 0.122 µM in assay [1] (read-out: Ki) and 0.023 µM in assay [3]. The concentration for a half-maximal effect (EC50) entry in assay [2] (cho) is “Not Active”.
Consider `COc1cc(CNC(=S)NCC(COC(=O)C(C)(C)C)Cc2ccc(C(C)(C)C)cc2)ccc1O` (racemic), for which the Ki result in assay [1] (cho) is “Not Active”; in assay [3], 0.0061 µM. Besides, the EC50 in assay [2] (read-out: EC50) came out at 0.00134 µM.
`C=C(C)[C@]12C[C@@H](C)[C@@]34O[C@](Cc5ccccc5)(O[C@@H]1[C@@H]3C=C(COC(=O)Cc1cc(I)c(O)c(OC)c1)C[C@]1(O)C(=O)C(C)=C[C@@H]41)O2` [IODORESINIFERATOXIN]: in assay [2] (cho), the EC50 result is on record as “Not Active”.
`C=C(C)[C@]12C[C@@H](C)[C@@]34O[C@](Cc5ccccc5)(O[C@@H]1[C@@H]3C=C(COC(=O)Cc1ccc(O)c(OC)c1)C[C@]1(O)C(=O)C(C)=C[C@@H]41)O2` [RESINIFERATOXIN]: the Ki entry in assay [1] (cho) was “Not Active”.
